Legend:
[1] = system: Schistosoma mansoni; assay: Antischistosomicidal activity against Schistosoma mansoni egyptian strain assessed as worm mortality at 5 ug/ml after 5 days by stereomicroscopy; format: functional; details: 120 h
[2] = system: Schistosoma mansoni; assay: Antischistosomicidal activity against Schistosoma mansoni egyptian strain assessed as worm mortality after 5 days by stereomicroscopy; format: functional, organism-based; details: for IC90: Schistosoma mansoni, egyptian strain, 120 h

Row | SMILES | mortality at 5 µg/mL [1] | IC50 [2] | IC90 [2]
1 | Cn1c2nc3ccccc3c-2c(NCCCO)c2cc(Br)ccc21 | 66.7% | – | –
2 | Cn1c2nc3ccccc3c-2c(N2CCN(CCO)CC2)c2cc(C(F)(F)F)ccc21 | 25% | – | –
3 | CCN(CC)CCCC(C)Nc1c2c3ccccc3nc-2n(C)c2ccc(Cl)cc12 (stereo not drawn) | 100% | 11.74 uM/ml | 16.8 µM
4 | Cn1c2nc3ccccc3c-2c(Nc2ccc(CCO)cc2)c2cc(Br)ccc21 | 91.7% | – | –
5 | CN1CCN(c2c3c4ccccc4nc-3n(C)c3ccccc23)CC1 | 0% | – | –
6 | Cn1c2nc3ccccc3c-2c(NCCCN2CCN(CCCNc3c4c5ccccc5nc-4n(C)c4ccc(C(F)(F)F)cc34)CC2)c2cc(C(F)(F)F)ccc21 | 8.3% | – | –
7 | Cn1c2nc3ccccc3c-2c(N2CCOCC2)c2ccccc21 | 66.7% | – | –
8 | Cn1c2nc3ccccc3c-2c(NCCc2c[nH]c3ccccc23)c2ccccc21 | 100% | 2.7 uM/ml | 3.95 µM
9 | O=C(C1CCCCC1)N1CC(=O)N2CCc3ccccc3C2C1 (stereo not drawn) [PRAZIQUANTEL] | 100% | 0.21 uM/ml | 0.37 µM
10 | Cn1c2nc3ccccc3c-2c(Nc2ccccc2)c2ccccc21 | 100% | 3.07 uM/ml | 4.3 µM
11 | Cn1c2nc3ccccc3c-2c(Nc2ccc(CCO)cc2)c2ccccc21 | 58.3% | – | –
12 | CN1CCN(c2c3c4ccccc4nc-3n(C)c3ccc(C(F)(F)F)cc23)CC1 | 100% | 4.61 uM/ml | 6.05 µM
13 | Cn1c2nc3ccccc3c-2c(Cl)c2ccccc21 [11-CHLORONEOCRYPTOLEPINE] | 75% | – | –
14 | Cn1c2nc3ccccc3c-2c(Cl)c2cc(C(F)(F)F)ccc21 | 91.7% | – | –
15 | Cn1c2nc3ccccc3c-2cc2ccccc21 [NEOCRYPTOLEPINE] | 5% | – | –
16 | Cn1c2nc3ccccc3c-2c(NCCCN2CCN(CCCNc3c4c5ccccc5nc-4n(C)c4ccc(Cl)cc34)CC2)c2cc(Cl)ccc21 | 100% | 3.42 uM/ml | 5.1 µM
17 | Cn1c2nc3ccccc3c-2c(Nc2ccc(C(F)(F)F)cc2)c2ccccc21 | 100% | 3.73 uM/ml | 4.81 µM
18 | Cn1c2nc3ccccc3c-2c(Cl)c2cc(Br)ccc21 | 25% | – | –
19 | Clc1ccc2nc3[nH]c4ccccc4c3c(Cl)c2c1 | 0% | – | –

Source: ChEMBL document CHEMBL3045194, “Neocryptolepine analogues containing N-substituted side-chains at C-11: synthesis and antischistosomicidal activity” (Med Chem Res, 2012)
